Reference: publication PMC6429585, “Synthesis, Microtubule-Binding Affinity, and Antiproliferative Activity of New Epothilone Analogs and of an EGFR-Targeted Epothilone-Peptide Conjugate” (International Journal of Molecular Sciences, 2019)
Read-outs that look alike come from different tables or passages of the source.

Tests used:
HEK293 cells = assay: cells; format: cell-based, human; settings: Homo sapiens, read-out: IC50 HEK293
Protocol: (§1) Experiments were performed in RPMI (SW480 cells) or DMEM (HEK293 and A431 cells) medium (Gibco) supplemented with 2 mM glutamine, 10% fetal bovine serum, 100 IU/mL penicillin, 100 µg/mL streptomycin, and 1 µg/mL amphotericin B (all from Sigma) at 37 °C and 5% CO2. Cells were seeded into 96-well microtiter plates and compounds were added in DMSO in serial dilutions in triplicate. The final DMSO (dimethylsulfoxide) concentration was 0.1%. After 72 h, a WST-1 reagent was added and the absorption was measured at 450 nm with a plate reader after 30 min to 4 h. The percentage of viable cells was calculated based on vehicle-treated cells and was plotted in GraphPadPrism. At least three independent experiments were performed.
(§2) A431 cells were obtained from CLS. The other cell lines were available in the laboratory. WST-1 was purchased from Roche.

SW480 cells = assay: cells; format: cell-based, human; settings: Homo sapiens, read-out: IC50 SW480
Protocol: as §1, §2

A431 cells = assay: cells; format: cell-based, human; settings: Homo sapiens, read-out: IC50 A431
Protocol: as §1, §2

EGFR (Homo sapiens) = EGFR (Homo sapiens) (UniProt P00533); assay: SPR; settings: cited from earlier work
[1] = target: glutaraldehyde-stabilized microtubules (paclitaxel binding site); assay: Microtubule binding affinity by displacement of Flutax-2 (fluorescence anisotropy); design: species or system calf
Protocol: The binding affinity of epothilone analogs 1, 14, and 16 and of targeted conjugate 4 for microtubules was determined as previously described by Díaz and co-workers, using partly cross-linked microtubules and determining the changes in fluorescence anisotropy upon displacement of the fluorescent taxol derivative Flutax-2 [42, 43] (Figure S3).
Purified calf-brain tubulin and chemicals were obtained as previously described. Stabilized, moderately crosslinked microtubules were prepared as reported in [42]. Binding constants of azathilones to stabilized microtubules were measured as previously described by Buey et al.. For details of the experimental procedures and Flutax-2 displacement curves cf. Section SI.3 of the Supplementary Materials.
SI.3. Disulfide cleavage asssay
Figure S2. […]
60 mg of frozen tubulin were thawed and loaded on a Sephadex G-25 column pre-equilibrated with cold 1 mM EGTA, 3.4 M glycerol, 10 mM sodium phosphate pH 6.8 buffer supplemented with 0.1 mM GTP. […] Fractions were collected and analyzed by spectrophotometry at 295 nm on a Thermo Evolution 300LC device. […] The tubulin concentration of the supernatant was determined by spectrophotometry at a 1:20 dilution of 10 mM sodium phosphate buffer containing 1%
SDS. The concentration was calculated with an extinction coefficient of 107’000 M-1cm-1 at 276 nm. […]
The concentration was measured spectrophotometrically as previously. […]

[2] = test system: cross-linked stabilized microtubules; design: method as in earlier work; settings: cited from earlier work
EGFR = settings: read-out: IC50 for displacement of [^125I]-EGF from the EGFR; cited from earlier work
[3] = target: stabilized, moderately crosslinked microtubules (calf-brain tubulin) (calf (endogenous in calf brain)) (UniProt Q6B856); assay: fluorescence polarisation; displacement of the fluorescent taxol derivative Flutax-2 from glutaraldehyde-stabilized, partly cross-linked microtubules, read by change in fluorescence anisotropy; 35 °C; association constant Kb

Q: Which results are given for `Cc1nc2cc([C@@H]3C[C@@H]4C[C@H]4CCC[C@H](C)[C@H](O)[C@@H](C)C(=O)C(C)(C)CCC(=O)O3)ccc2n1CCSSCCn1c(C)nc2cc([C@@H]3C[C@@H]4C[C@H]4CCC[C@H](C)[C@H](O)[C@@H](C)C(=O)C(C)(C)CCC(=O)O3)ccc21` [compound 16, Dimer of (1S,3S,10R,11S,12S,16R)-11-hydroxy-3-(1-(2-mercaptoethyl)-2-methyl-1H-benzo[d]imidazol-5-yl)-8,8,10,12-tetramethyl-4-oxabicyclo[14.1.0]heptadecane-5,9-dione]?
A: IC50 (HEK293 cells; HEK293, 72 h incubation, mean of three experiments ± SD): 0.00208 ± 0.00053 µM; IC50 (SW480 cells; SW480, 72 h incubation, mean of three experiments ± SD): 0.00891 ± 0.00126 µM; IC50 (A431 cells; A-431, 72 h incubation, mean of three experiments ± SD): 0.00837 ± 0.00081 µM

Q: For `C/C(=C\c1csc(C)n1)[C@@H]1C[C@@H]2O[C@@H]2CCC[C@H](C)[C@H](O)[C@@H](C)C(=O)C(C)(C)[C@@H](O)CC(=O)O1` [Epo A, Epothilone A], which IC50 (HEK293 cells; HEK293, 72 h) is on record?
A: The IC50 was 0.00271 ± 0.00062 µM.

Q: What about the IC50 (SW480 cells; SW480, 72 h) of the same molecule?
A: Its IC50 is 0.0145 ± 0.00109 µM.

Q: And the IC50 (A431 cells; A-431, 72 h)?
A: The IC50 was 0.00294 ± 0.0003 µM.

Q: For GE11 peptide, which Kd (EGFR (Homo sapiens)) is on record?
A: The Kd was 459 µM.

Q: Which “Kb lower compared to 1” value ([1]; ratio of microtubule-binding affinity versus analog 1) does the source give for `CC(=O)SCCn1c(C)nc2cc([C@@H]3C[C@@H]4C[C@H]4CCC[C@H](C)[C@H](O)[C@@H](C)C(=O)C(C)(C)CCC(=O)O3)ccc21` [compound 14, S-(2-(5-((1S,3S,10R,11S,12S,16R)-11-Hydroxy-8,8,10,12-tetramethyl-5,9-dioxo-4-oxabicyclo[14.1.0]heptadecan-3-yl)-2-methyl-1H-benzo[d]imidazol-1-yl)ethyl) ethanethioate] here?
A: Its value is greater than 10 fold.

Q: For Flutax-2, which “Flutax-2 Ka” value ([2]; 26 °C) is on record?
A: The value was 6.5 107 M-1.

Q: And the “Flutax-2 Ka” value ([2]; 27 °C)?
A: The value was 5.9 107 M-1.

Q: What about the “Flutax-2 Ka” value ([2]; 30 °C) of the same molecule?
A: The value was 4.6 107 M-1.

Q: And the “Flutax-2 Ka” value ([2]; 32 °C)?
A: Its value is 4.2 107 M-1.

Q: What about the “Flutax-2 Ka” value ([2]; 35 °C) of the same molecule?
A: Its value is 3.0 107 M-1.

Q: And the “Flutax-2 Ka” value ([2]; 37 °C)?
A: The value was 2.2 107 M-1.

Q: What about the “Flutax-2 Ka” value ([2]; 40 °C) of the same molecule?
A: The value was 2.0 107 M-1.

Q: What about the “Flutax-2 Ka” value ([2]; 42 °C) of the same molecule?
A: The value was 1.8 107 M-1.

Q: Which IC50 (HEK293 cells; HEK293, 72 h) does the source give for `Cc1nc2cc([C@@H]3C[C@@H]4C[C@H]4CCC[C@H](C)[C@H](O)[C@@H](C)C(=O)C(C)(C)CCC(=O)O3)ccc2n1CCO` [compound 1, (1S,3S,10R,11S,12S,16R)-11-Hydroxy-3-(1-(2-hydroxyethyl)-2-methyl-1H-benzo[d]imidazol-5-yl)-8,8,10,12-tetramethyl-4-oxabicyclo[14.1.0] heptadecane-5,9-dione] here?
A: The IC50 was 0.00087 ± 0.00013 µM.

Q: And the IC50 (SW480 cells; SW480, 72 h)?
A: Its IC50 is 0.0176 ± 0.0035 µM.

Q: What about the IC50 (A431 cells; A-431, 72 h) of the same molecule?
A: The IC50 was 0.00332 ± 0.0006 µM.

Q: For “CysCE11: GE11 peptide with a Cys residue added to the N-terminus; custom-made by Biosyntan (CYHWYGYTPQNVI) [reference compound]”, which “microtubule binding (in words)” value [1] is on record?
A: The value was “no relevant microtubule binding”.

Q: Which IC50 (EGFR) does the source give for “EGF: epidermal growth factor, natural EGFR ligand” here?
A: The IC50 was 0.0051 µM.

Q: Which IC50 (EGFR) does the source give for “GE11: 12-amino acid residue peptide of the sequence YHWYGYTPQNVI, reported to bind to EGFR [reference compound]” here?
A: The IC50 was greater than 1000 µM.

B1: epothilone-GE11 conjugate 4 (peptide)
peptide: CYHWYGYTPQNVI
modifications: side chain of the N-terminal Cys disulfide-linked to the thiol-containing epothilone analog 2; C-terminal amide (by the systematic name of 4)
Q: Which Ka [3] does the source give for B1 here?
A: The Ka was 9.3e+06 M⁻¹.

B2: Cys-GE11 peptide (peptide)
peptide: CYHWYGYTPQNVI
Q: Which Ka [3] does the source give for B2 here?
A: Its Ka is 50000 M⁻¹.
